Experimental data from US9670204B2, “Compounds and pharmaceutical compositions thereof for the treatment of inflammatory disorders” (Galapagos NV, priority 2013, dated 2017).
pIC50: −log10 of the molar value.

What was measured:
hENPP2 [1] = target: T1, hENPP2 (UniProtKB/SwissProt Q13822) (Homo sapiens (Human), UniProt Q13822); test: fluorescent hENPP2 biochemical assay, FS-3 as substrate; conditions: read-out: FS3-IC50
Procedure, shortened: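 IC50 values come from fluorescence gained as FS-3 is hydrolysed (ex 485, em 520 nm). The reaction, started by adding 0.75 μM FS-3 solution, runs 30 min at 30° C after a 30 min room-temperature preincubation of compound with enzyme. Buffer: Tris-HCl pH 8.0 with NaCl, KCl, MgCl2, CaCl2 and 0.1% BSA.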

hENPP2 [2] = target: T1, hENPP2; test: hENPP2 biochemical assay, LPC as substrate; conditions: LPC (palmitoyl 16:0) as substrate
Procedure, shortened: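 Human ENPP2 in 50 mM Tris-HCl pH 8.5, 500 mM NaCl, 5 mM KCl, 10 mM CaCl2, 0.1% fatty-acid-free BSA, reacted 30 min at 37 °C with LPC 16:0 (150 µM solution added 1:1). Released choline measured via choline oxidase/peroxidase/TOOS/4-aminoantipyrine quinoneimine dye at 555 nm; IC50 reported.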

SMILES | pIC50 (hENPP2 [1]) | pIC50 (hENPP2 [2])
CCc1nc2ccc(C3CCN(S(N)(=O)=O)CC3)cn2c1N(C)c1nc(-c2ccc(F)cc2)cs1 [Compound 92, 4-(2-ethyl-3-((4-(4-fluorophenyl)thiazol-2-yl)(methyl)amino)imidazo[1,2-a]pyridin-6-yl)piperidine-1-sulfonamide] | 7.00 to 11.00 | < 6.00
CCc1nc2ccc(N3CCN(CC(=O)NC)CC3)cn2c1N(C)c1nc(-c2ccc(F)cc2)c(C#N)s1 [Compound 22, 2-(4-(3-((5-cyano-4-(4-fluorophenyl)thiazol-2-yl)(methyl)amino)-2-ethylimidazo[1,2-a]pyridin-6-yl)piperazin-1-yl)-N-methylacetamide] | 7.00 to 11.00 | 7.00 to 11.00
CCc1nc2ccc(C3CCN(CC(=O)NC4CC4)CC3)cn2c1N(C)c1nc(-c2ccc(F)cc2)cs1 [Compound 194, N-cyclopropyl-2-(4-(2-ethyl-3-((4-(4-fluorophenyl)thiazol-2-yl)(methyl)amino)imidazo[1,2-a]pyridin-6-yl)piperidin-1-yl)acetamide] | 7.00 to 11.00 | < 6.00
CCc1nc2ccc(C3CCN(S(C)(=O)=O)CC3)cn2c1N(C)c1nc(-c2ccc(F)cc2NC(C)=O)cs1 [Compound 106, N-(2-(2-((2-ethyl-6-(1-(methylsulfonyl)piperidin-4-yl)imidazo[1,2-a]pyridin-3-yl)(methyl)amino)thiazol-4-yl)-5-fluorophenyl)acetamide] | 7.00 to 11.00 | < 6.00
CCc1nc2ccc(N3CCN(CC(=O)N(C)C)CC3)cn2c1N(C)c1nc(-c2ccc(F)cc2C#N)cs1 [Compound 168, 2-(4-(3-((4-(2-cyano-4-fluorophenyl)thiazol-2-yl)(methyl)amino)-2-ethylimidazo[1,2-a]pyridin-6-yl)piperazin-1-yl)-N,N-dimethylacetamide] | 7.00 to 11.00 | 7.00 to 11.00
CCOC(=O)CN1CCN(c2ccc3nc(CC)c(N(C)c4nc(-c5ccc(F)cc5)cs4)n3c2)C(=O)C1 [Compound 64, ethyl 2-(4-(2-ethyl-3-((4-(4-fluorophenyl)thiazol-2-yl)(methyl)amino)imidazo[1,2-a]pyridin-6-yl)-3-oxopiperazin-1-yl)acetate] | 7.00 to 11.00 | < 6.00
CCc1nc2ccc(N3CCN(CC(=O)N4CC[C@H](O)C4)CC3)cn2c1N(C)c1nc(-c2ccc(F)cc2)cs1 [Compound 25, (S)-2-(4-(2-ethyl-3-((4-(4-fluorophenyl)thiazol-2-yl)(methyl)amino)imidazo[1,2-a]pyridin-6-yl)piperazin-1-yl)-1-(3-hydroxypyrrolidin-1-yl)ethanone] | 7.00 to 11.00 | 6.30 to 7.00
CCc1nc2ccc(C3CCN(S(=O)(=O)CCCN4CCCC4)CC3)cn2c1N(C)c1nc(-c2ccc(F)cc2)cs1 [Compound 89, {2-Ethyl-6-[1-(3-pyrrolidin-1-yl-propane-1-sulfonyl)-piperidin-4-yl]-imidazo[1,2-a]pyridin-3-yl}-[4-(4-fluoro-phenyl)-thiazol-2-yl]-methyl-amine] | 7.00 to 11.00 | 6.30 to 7.00
CCc1nc2ccc(N3CCN(CC(=O)N4CC(O)C4)CC3)cn2c1N(C)c1nc(-c2ccc(F)cc2)cs1 [Compound 24, 2-(4-(2-ethyl-3-((4-(4-fluorophenyl)thiazol-2-yl)(methyl)amino)imidazo[1,2-a]pyridin-6-yl)piperazin-1-yl)-1-(3-hydroxyazetidin-1-yl)ethanone] | 7.00 to 11.00 | 6.30 to 7.00
CCc1nc2ccc(C3CCN(CC(=O)N(C)C)CC3)cn2c1N(C)c1nc(-c2ccc(F)cc2)ns1 [Compound 191, 2-(4-(2-ethyl-3-((3-(4-fluorophenyl)-1,2,4-thiadiazol-5-yl)(methyl)amino)imidazo[1,2-a]pyridin-6-yl)piperidin-1-yl)-N,N-dimethylacetamide] | 7.00 to 11.00 | < 6.00

The next lines start with the values.

pIC50 (hENPP2 [1]) | pIC50 (hENPP2 [2]) | SMILES
7.00 to 11.00 | < 6.00 | CN(c1nc(-c2ccc(Cl)cc2)cs1)c1c(CC(F)(F)F)nc2ccc(C3=CCN(S(C)(=O)=O)CC3)cn12 [Compound 185, 4-(4-chlorophenyl)-N-methyl-N-(6-(1-(methylsulfonyl)-1,2,3,6-tetrahydropyridin-4-yl)-2-(2,2,2-tetrahydropyridin-4-yl)-2-(2,2,2-trifluoroethyl)imidazo [1,2-a]pyridin-3-yl) thiazol-2-amine]
7.00 to 11.00 | < 6.00 | CCc1nc2ccc(C3CCN(S(C)(=O)=O)CC3O)cn2c1N(C)c1nc(-c2ccc(F)cc2)cs1 (centres unmarked) [Compound 79, 4-(2-ethyl-3-((4-(4-fluorophenyl)thiazol-2-yl)(methyl)amino)imidazo[1,2-a]pyridin-6-yl)-1-(methylsulfonyl) piperidin-3-ol]
7.00 to 11.00 | < 6.00 | CCc1nc2ccc(N3CCNC3=O)cn2c1N(C)c1nc(-c2ccc(Cl)cc2)cs1 [Compound 183, 1-(3-((4-(4-chlorophenyl)thiazol-2-yl)(methyl)amino)-2-ethylimidazo[1,2-a]pyridin-6-yl)imidazolidin-2-one]
7.00 to 11.00 | 6.30 to 7.00 | CCc1nc2ccc(C3CCN(S(=O)(=O)CCCOC(C)=O)CC3)cn2c1N(C)c1nc(-c2ccc(F)cc2)cs1 [Compound 93, 3-(4-(2-ethyl-3-((4-(4-fluorophenyl)thiazol-2-yl)(methyl)amino)imidazo[1,2-a]pyridin-6-yl)piperidin-1-ylsulfonyl)propyl acetate]
7.00 to 11.00 | < 6.00 | CCc1nc2ccc(N3CCN(CC(=O)O)CC3)cn2c1N(C)c1nc(-c2ccc(F)cc2)cs1 [Compound 42, 2-(4-(2-ethyl-3-((4-(4-fluorophenyl)thiazol-2-yl)(methyl)amino)imidazo[1,2-a]pyridin-6-yl)piperazin-1-yl)acetic acid]
7.00 to 11.00 | < 6.00 | CCc1nc2ccc(C3CCN(S(C)(=O)=O)CC3)cn2c1N(C)c1nc(-c2ccc(F)cc2O)cs1 [Compound 224, 2-(2-((2-ethyl-6-(1-(methylsulfonyl)piperidin-4-yl)imidazo [1,2-a]pyridin-3-yl)(methyl)amino)thiazol-4-yl)-5-fluorophenol]
7.00 to 11.00 | < 6.00 | CCc1nc2ccc(C3=CCN(S(=O)(=O)CCCOC(C)=O)CC3)cn2c1N(C)c1nc(-c2ccc(F)cc2)cs1 [Compound 74, Acetic acid 3-[4-(2-ethyl-3-{[4-(4-fluoro-phenyl)-thiazol-2-yl]-methyl-amino}-imidazo[1,2-a]pyridin-6-yl)-3,6-dihydro-2H-pyridine-1-sulfonyl]-propyl ester]
7.00 to 11.00 | < 6.00 | CCc1nc2ccc(C3CCN(S(C)(=O)=O)CC3)cn2c1N(C)c1nc(-c2ccc(F)cc2Cl)cs1 [Compound 99, 4-(2-chloro-4-fluorophenyl)-N-(2-ethyl-6-(1-(methylsulfonyl)piperidin-4-yl)imidazo [1,2-a]pyridin-3-yl)-N-methylthiazol-2-amine]
7.00 to 11.00 | < 6.00 | CCc1nc2ccc(N3CCN(C(=O)C4CCN(S(C)(=O)=O)C4)CC3)cn2c1N(C)c1nc(-c2ccc(F)cc2)cs1 (centres unmarked) [Compound 49, (4-(2-ethyl-3-((4-(4-fluorophenyl)thiazol-2-yl)(methyl)amino)imidazo[1,2-a]pyridin-6-yl)piperazin-1-yl)(1-(methylsulfonyl)pyrrolidin-3-yl) methanone]
7.00 to 11.00 | < 6.00 | CCc1nc2ccc(C3=CCN(S(=O)(=O)CCl)CC3)cn2c1N(C)c1nc(-c2ccc(F)cc2)cs1 [Compound 67, N-(6-(1-(chloromethylsulfonyl)-1,2,3,6-tetrahydropyridin-4-yl)-2-ethylimidazo[1,2-a]pyridin-3-yl)-4-(4-fluorophenyl)-N-methylthiazol-2-amine]
7.00 to 11.00 | < 6.00 | CCc1nc2ccc(N3CCN(C(=O)C(N)=O)CC3)cn2c1N(C)c1nc(-c2ccc(F)cc2)cs1 [Compound 204, 2-(4-(2-ethyl-3-((4-(4-fluorophenyl)thiazol-2-yl)(methyl)amino)imidazo[1,2-a]pyridin-6-yl)piperazin-1-yl)-2-oxoacetamide]
7.00 to 11.00 | < 6.00 | CCc1nc2ccc(C3=NC(CO)CO3)cn2c1N(C)c1nc(-c2ccc(F)cc2)cs1 (centres unmarked) [Compound 239, (2-(2-ethyl-3-((4-(4-fluorophenyl)thiazol-2-yl)(methyl)amino)imidazo[1,2-a]pyridin-6-yl)-4,5-dihydro-oxazol-4-yl)methanol]
7.00 to 11.00 | < 6.00 | CCc1nc2ccc(N3CCN(S(C)(=O)=O)CC3=O)cn2c1N(C)c1nc(-c2ccc(F)cc2)cs1 [Compound 65, 1-(2-ethyl-3-((4-(4-fluorophenyl)thiazol-2-yl)(methyl)amino)imidazo[1,2-a]pyridin-6-yl)-4-(methylsulfonyl) piperazin-2-one]
7.00 to 11.00 | < 6.00 | CCc1nc2ccc(N3CCN(S(=O)(=O)CCCCl)CC3)cn2c1N(C)c1nc(-c2ccc(F)cc2)cs1 [Compound 55, N-(6-(4-(3-chloropropylsulfonyl)piperazin-1-yl)-2-ethylimidazo[1,2-a]pyridin-3-yl)-4-(4-fluorophenyl)-N-methylthiazol-2-amine]
7.00 to 11.00 | < 6.00 | CCc1nc2ccc(C3=CCN(S(C)(=O)=O)CC3)cn2c1N(C)c1nc(-c2ccc(F)cc2)no1 [Compound 189, N-(2-ethyl-6-(1-(methylsulfonyl)-1,2,3,6-tetrahydropyridin-4-yl)imidazo[1,2-a]pyridin-3-yl)-3-(4-fluorophenyl)-N-methyl-1,2,4-oxadiazol-5-amine]
